Results published in PubChem BioAssay (NCI).
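Tested at 5 concentrations; 48 h exposure; 96-well plates; endpoints linearly interpolated, else capped at highest concentration. At the GI50, growth is halved. TGI marks complete inhibition of growth.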

How the values were obtained:
Test in all cases: inhibition of tumour cell growth, NCI panel, 48 h
786-0 renal = tested on: 786-0 renal
A498 renal = tested on: A498 renal
A549 NSCLC = tested on: A549 NSCLC
ACHN renal = tested on: ACHN renal
BT-549 breast = tested on: BT-549 breast
CAKI-1 renal = tested on: CAKI-1 renal
CCRF-CEM leukemia = tested on: CCRF-CEM leukemia
COLO 205 colon = tested on: COLO 205 colon
DU-145 prostate = tested on: DU-145 prostate
EKVX NSCLC = tested on: EKVX NSCLC
HCC-2998 colon = tested on: HCC-2998 colon
HCT-116 colon = tested on: HCT-116 colon
HCT-15 colon = tested on: HCT-15 colon
HL-60(TB) leukemia = tested on: HL-60(TB) leukemia
HOP-62 NSCLC = tested on: HOP-62 NSCLC
HOP-92 NSCLC = tested on: HOP-92 NSCLC
HS 578T breast = tested on: HS 578T breast
HT29 colon = tested on: HT29 colon
IGROV1 ovarian = tested on: IGROV1 ovarian
K-562 leukemia = tested on: K-562 leukemia
KM12 colon = tested on: KM12 colon
LOX IMVI melanoma = tested on: LOX IMVI melanoma
M14 melanoma = tested on: M14 melanoma
MALME-3M melanoma = tested on: MALME-3M melanoma
MCF7 breast = tested on: MCF7 breast
MDA-MB-231 breast = tested on: MDA-MB-231 breast
MDA-MB-435 = tested on: MDA-MB-435
MOLT-4 leukemia = tested on: MOLT-4 leukemia
NCI-H226 lung = tested on: NCI-H226 lung
NCI-H23 lung = tested on: NCI-H23 lung
NCI-H460 lung = tested on: NCI-H460 lung
NCI-H522 lung = tested on: NCI-H522 lung
NCI/ADR-RES ovarian = tested on: NCI/ADR-RES ovarian
OVCAR-4 ovarian = tested on: OVCAR-4 ovarian
OVCAR-5 ovarian = tested on: OVCAR-5 ovarian
OVCAR-8 ovarian = tested on: OVCAR-8 ovarian
PC-3 prostate = tested on: PC-3 prostate
RPMI-8226 leukemia = tested on: RPMI-8226 leukemia
RXF 393 renal = tested on: RXF 393 renal
SF-268 CNS = tested on: SF-268 CNS
SF-295 CNS = tested on: SF-295 CNS
SF-539 CNS = tested on: SF-539 CNS
SK-MEL-2 melanoma = tested on: SK-MEL-2 melanoma
SK-MEL-28 melanoma = tested on: SK-MEL-28 melanoma
SK-MEL-5 melanoma = tested on: SK-MEL-5 melanoma
SK-OV-3 ovarian = tested on: SK-OV-3 ovarian
SN12C renal = tested on: SN12C renal
SNB-19 CNS = tested on: SNB-19 CNS
SNB-75 CNS = tested on: SNB-75 CNS
SR leukemia = tested on: SR leukemia
SW-620 colon = tested on: SW-620 colon
T-47D breast = tested on: T-47D breast
TK-10 renal = tested on: TK-10 renal
U251 CNS = tested on: U251 CNS
UACC-257 melanoma = tested on: UACC-257 melanoma
UACC-62 melanoma = tested on: UACC-62 melanoma
UO-31 renal = tested on: UO-31 renal

## O=C(NNc1nc2cc(F)c(F)cc2n2c(CN3CC4CNCC4C3)ccc12)c1cnccn1 (centres undefined)
786-0 renal
  GI50: 0.609 µM
  TGI: 12.4 µM
A498 renal
  GI50: 0.522 µM
  TGI: 4.22 µM
A549 NSCLC
  GI50: 0.851 µM
  TGI: 10.6 µM
ACHN renal
  GI50: 0.429 µM
  TGI: 7.82 µM
BT-549 breast
  GI50: 2.42 µM
  TGI: 13.8 µM
CAKI-1 renal
  GI50: 0.415 µM
  TGI: 9.69 µM
CCRF-CEM leukemia
  GI50: 0.706 µM
  TGI: 27.5 µM
COLO 205 colon
  GI50: 0.874 µM
  TGI: 13.8 µM
DU-145 prostate
  GI50: 1.3 µM
  TGI: 11.8 µM
EKVX NSCLC
  GI50: 0.732 µM
  TGI: 13.8 µM
HCC-2998 colon
  GI50: 2.74 µM
  TGI: 16.5 µM
HCT-116 colon
  GI50: 0.588 µM
  TGI: 15.8 µM
HCT-15 colon
  GI50: 0.363 µM
  TGI: 16.2 µM
HL-60(TB) leukemia
  GI50: 1.15 µM
  TGI: 4.36 µM
HOP-62 NSCLC
  GI50: 0.459 µM
  TGI: 5.23 µM
HOP-92 NSCLC
  GI50: 3.01 µM
  TGI: 17.4 µM
HS 578T breast
  GI50: 3.33 µM
  TGI: 20.6 µM
HT29 colon
  GI50: 0.726 µM
  TGI: 15.2 µM
IGROV1 ovarian
  GI50: 0.904 µM
  TGI: 10.8 µM
K-562 leukemia
  GI50: 0.785 µM
  TGI: > 100 µM
KM12 colon
  GI50: 0.74 µM
  TGI: 12.7 µM
LOX IMVI melanoma
  GI50: 0.608 µM
  TGI: 6.7 µM
M14 melanoma
  GI50: 0.611 µM
  TGI: 12.3 µM
MALME-3M melanoma
  GI50: 1.75 µM
  TGI: 9.7 µM
MCF7 breast
  GI50: 1.41 µM
  TGI: 12.3 µM
MDA-MB-231 breast
  GI50: 3.65 µM
  TGI: 20.6 µM
MDA-MB-435
  GI50: 2.53 µM
  TGI: 16.3 µM
MOLT-4 leukemia
  GI50: 0.764 µM
  TGI: 13.6 µM
NCI-H226 lung
  GI50: 1.23 µM
  TGI: 14.5 µM
NCI-H23 lung
  GI50: 2.47 µM
  TGI: 14.3 µM
NCI-H460 lung
  GI50: 0.463 µM
  TGI: 4.72 µM
NCI-H522 lung
  GI50: 2.34 µM
  TGI: 6.26 µM
NCI/ADR-RES ovarian
  GI50: 2.6 µM
  TGI: 14.3 µM
OVCAR-4 ovarian
  GI50: 0.995 µM
  TGI: 20.6 µM
OVCAR-5 ovarian
  GI50: 1.75 µM
  TGI: 16.8 µM
OVCAR-8 ovarian
  GI50: 0.547 µM
  TGI: 7.83 µM
PC-3 prostate
  GI50: 1.25 µM
  TGI: 16.1 µM
RPMI-8226 leukemia
  GI50: 1.3 µM
  TGI: 11.8 µM
RXF 393 renal
  GI50: 1.27 µM
  TGI: 9.46 µM
SF-268 CNS
  GI50: 0.962 µM
  TGI: 10.8 µM
SF-295 CNS
  GI50: 0.44 µM
  TGI: 11.2 µM
SF-539 CNS
  GI50: 1.07 µM
  TGI: 4.42 µM
SK-MEL-2 melanoma
  GI50: 1.89 µM
  TGI: 11.4 µM
SK-MEL-28 melanoma
  GI50: 2.11 µM
  TGI: 14.5 µM
SK-MEL-5 melanoma
  GI50: 1.65 µM
  TGI: 4.34 µM
SK-OV-3 ovarian
  GI50: 0.811 µM
  TGI: 9.06 µM
SN12C renal
  GI50: 2.06 µM
  TGI: 11.4 µM
SNB-19 CNS
  GI50: 2.2 µM
  TGI: 18.8 µM
SNB-75 CNS
  GI50: 2.16 µM
  TGI: 14.1 µM
SR leukemia
  GI50: 0.481 µM
  TGI: 20.5 µM
SW-620 colon
  GI50: 1.17 µM
  TGI: 15.2 µM
T-47D breast
  GI50: 3.3 µM
  TGI: 22.9 µM
TK-10 renal
  GI50: 0.455 µM
  TGI: 17 µM
U251 CNS
  GI50: 0.741 µM
  TGI: 11.2 µM
UACC-257 melanoma
  GI50: 2.09 µM
  TGI: 7.13 µM
UACC-62 melanoma
  GI50: 1.19 µM
  TGI: 6.28 µM
UO-31 renal
  GI50: 0.356 µM
  TGI: 3.24 µM
